Measured values from patent publication US8158792B2, “Spiropiperidines for use as tryptase inhibitors” (Janssen Pharmaceutica N.V., priority 2007, dated 2012).

Target: human lung tryptase
Assay: β-Tryptase In-Vitro Enzyme Assay
Assay type: biochemical
Settings: human lung tryptase 1 nM, substrate H-D-HHT-Ala-Arg-pNa 500 μM, pH 7.4, room temperature
Protocol: The β-tryptase assay was conducted with human lung tryptase (Cortex Biochem #CP3033) in an aqueous buffer (10 mM Tris, 10 mM Hepes, 150 mM NaCl, 0.1% PEG 8000, pH 7.4) using the chromogenic substrate H-D-HHT-Ala-Arg-pNa. […] Percent inhibition was calculated by comparing the initial reaction velocity of samples without inhibitor to those with inhibitor. The initial reaction velocities were analyzed using Microsoft Excel.

Row | Structure (SMILES) | IC50
1 | NCc1ccc2c(c1)C1(CCN(C(=O)CCc3cccc(I)c3)CC1)CO2 [Cpd 97, 1-(3-iodo-phenethyl)carbonyl-5′-aminomethyl-spiro[piperidine-4,3′-(2H)-benzo[b]furan]] | 1500 nM
2 | Cc1cccc(CCC(=O)N2CCC3(CC2)COc2ccc(CN)cc23)c1 [Cpd 98, 1-(3-methyl-phenethyl)carbonyl-5′-aminomethyl-spiro[piperidine-4,3′-(2H)-benzo[b]furan]] | 1700 nM
3 | COc1cccc(CC(=O)N2CCC3(CC2)COc2ccc(CN)cc23)c1 [Cpd 99, 1-(3-methoxy-benzyl)carbonyl-5′-aminomethyl-spiro[piperidine-4,3′-(2H)-benzo[b]furan]] | 580 nM
4 | NCc1ccc2c(c1)C1(CCN(C(=O)Cc3ccc4c(c3)OCO4)CC1)CO2 [Cpd 100, 1-benzodioxol-5-ylmethylcarbonyl-5′-aminomethyl-spiro[piperidine-4,3′-(2H)-benzo[b]furan]] | 680 nM
5 | COc1cccc(CCC(=O)N2CCC3(CC2)COc2ccc(CN)cc23)c1 [Cpd 101, 1-(3-methoxy-phenethyl)carbonyl-5′-aminomethyl-spiro[piperidine-4,3′-(2H)-benzo[b]furan]] | 2400 nM
6 | COc1ccc(CC(=O)N2CCC3(CC2)COc2ccc(CN)cc23)cc1C [Cpd 102, 1-(3-methyl-4-methoxy-benzyl)carbonyl-5′-aminomethyl-spiro[piperidine-4,3′-(2H)-benzo[b]furan]] | 600 nM
7 | CSc1cccc(CC(=O)N2CCC3(CC2)COc2ccc(CN)cc23)c1 [Cpd 103, 1-(3-methylthio-benzyl)carbonyl-5′-aminomethyl-spiro[piperidine-4,3′-(2H)-benzo[b]furan]] | 960 nM
8 | NCc1ccc2c(c1)C1(CCN(C(=O)CCc3ccc4c(c3)OCO4)CC1)CO2 [Cpd 104, 1-(benzodioxol-5-ylethyl)carbonyl-5′-aminomethyl-spiro[piperidine-4,3′-(2H)-benzo[b]furan]] | 4500 nM
9 | COc1ccc(CC(=O)N2CCC3(CC2)COc2ccc(CN)cc23)cc1OC [Cpd 105, 1-(3,4-dimethoxy-benzyl)carbonyl-5′-aminomethyl-spiro[piperidine-4,3′-(2H)-benzo[b]furan]] | 770 nM
10 | COc1cc(CC(=O)N2CCC3(CC2)COc2ccc(CN)cc23)ccc1OCc1ccccc1 [Cpd 106, 1-(3-methoxy-4-benzyloxy-benzyl)carbonyl-5′-aminomethyl-spiro[piperidine-4,3′-(2H)-benzo[b]furan]] | 610 nM
11 | NCc1ccc2c(c1)C1(CCN(C(=O)c3ccc(CCc4ccccc4)o3)CC1)CO2 [Cpd 107, 1-(5-phenethyl-furan-2-yl)carbonyl-5′-aminomethyl-spiro[piperidine-4,3′-(2H)-benzo[b]furan]] | 82 nM
12 | NCc1ccc2c(c1)C1(CCN(C(=O)C#Cc3ccccc3)CC1)CO2 [Cpd 108, 1-(phenylethynyl)carbonyl-5′-aminomethyl-spiro[piperidine-4,3′-(2H)-benzo[b]furan]] | 250 nM
13 | NCc1ccc2c(c1)C1(CCN(C(=O)/C=C/c3ccccc3)CC1)CO2 [Cpd 109, (E)-1-(phenylethenyl)carbonyl-5′-aminomethyl-spiro[piperidine-4,3′-(2H)-benzo[b]furan]] | 210 nM
14 | NCc1ccc2c(c1)C1(CCN(C(=O)c3cc4ccccc4s3)CC1)CO2 [Cpd 110, 1-benzothien-2-ylcarbonyl-5′-aminomethyl-spiro[piperidine-4,3′-(2H)-benzo[b]furan]] | 37 nM
15 | NCc1ccc2c(c1)C1(CCN(C(=O)/C=C/c3ccc(F)c(F)c3)CC1)CO2 [Cpd 111, (E)-1-(3,4-difluoro-phenylethenyl)carbonyl-5′-aminomethyl-spiro[piperidine-4,3′-(2H)-benzo[b]furan]] | 190 nM
16 | NCc1ccc2c(c1)C1(CCN(C(=O)/C=C/c3ccccc3)CC1)CO2 [Cpd 112, (E)-1-(phenylethenyl)carbonyl-5′-aminomethyl-spiro[piperidine-4,3′-(2H)-benzo[b]furan]] | 180 nM
